Assay results published in patent US6355799B1, “Substituted benzene compounds, process for their preparation, and herbicidal and defoliant compositions containing them” (ISK Americas Incorporated, priority 1997, dated 2002).

How the values were obtained:
Format in all cases: in vivo
[1] = system: sicklepod (Cassia obtusifolia, CASOB); assay: Pre-emerge test, greenhouse herbicide activity screening; details: pre-emerge, rated 14 days after application, 0 = no damage, 100 = complete death
How it was run: (§1)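 Herbicidal damage is scored 0 (none) to 100 (complete plant death) two weeks after a simulated field spray. Rates span 15–1000 g ai/ha, delivered in acetone at 187 l/ha. For post-emergence treatments, plants have 2–3 leaves and the spray carries 0.25% v/v non-ionic surfactant.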

[2] = system: johnsongrass (Sorghum halepense, SORHA); assay: as above; details: pre-emerge, rated 14 days after application, 0 = no damage, 100 = complete death
How it was run: as §1

[3] = system: lambsquarters (Chenopodium album, CHEAL); assay: as above; details: pre-emerge, rated 14 days after application, 0 = no damage, 100 = complete death
How it was run: as §1

[4] = system: barnyardgrass (Echinochloa crus-galli, ECHCG); assay: as above; details: pre-emerge, rated 14 days after application, 0 = no damage, 100 = complete death
How it was run: as §1

[5] = system: common ragweed (Ambrosia artemisizfolia L., AMBEL); assay: as above; details: pre-emerge, rated 14 days after application, 0 = no damage, 100 = complete death
How it was run: as §1

[6] = system: velvetleaf (Abutilon theophrasti, ABUTH); assay: as above; details: pre-emerge, rated 14 days after application, 0 = no damage, 100 = complete death
How it was run: as §1

[7] = system: large crabgrass (Digitaria sanguinalis, DIGSA); assay: as above; details: pre-emerge, rated 14 days after application, 0 = no damage, 100 = complete death
How it was run: as §1

[8] = system: ivyleaf morningglory (Ipomoea hederacea, IPOHE); assay: as above; details: pre-emerge, rated 14 days after application, 0 = no damage, 100 = complete death
How it was run: as §1

[9] = system: green foxtail (Setaria viridis, SETVI); assay: as above; details: pre-emerge, rated 14 days after application, 0 = no damage, 100 = complete death
How it was run: as §1

[10] = system: field corn (Zea mays L., var. Dekalb 535, CORN); assay: Post-emerge test, crop safety; details: phytotoxicity rating 0-100 (0 no damage, 100 complete death), 14 days after application
How it was run: as §1

[11] = system: upland rice (Oryza sp., var. Tebonnet, RICE); assay: Post-emerge test, crop safety; details: phytotoxicity rating 0-100 (0 no damage, 100 complete death), 14 days after application
How it was run: as §1

[12] = system: sicklepod (Cassia obtusifolia, CASOB); assay: Post-emerge test, greenhouse herbicide activity screening; details: phytotoxicity rating 0-100 (0 no damage, 100 complete death), 14 days after application
How it was run: (§2)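 Plants grown in 10 cm pots of sandy loam mix received acetone-dissolved compounds through a moving flat-fan nozzle. Doses ranged from 15 to 1000 g ai/ha. Pre-emerge pots were seeded one day earlier, post-emerge pots 8–21 days earlier. Fourteen days on, each pot was graded 0–100 for damage.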

[13] = system: redroot pigweed (Amaranthus retroflexus, AMARE); assay: as above; details: phytotoxicity rating 0-100 (0 no damage, 100 complete death), 14 days after application
How it was run: as §2

[14] = system: johnsongrass (Sorghum halepense, SORHA); assay: as above; details: phytotoxicity rating 0-100 (0 no damage, 100 complete death), 14 days after application
How it was run: as §2

[15] = system: lambsquarters (Chenopodium album, CHEAL); assay: as above; details: phytotoxicity rating 0-100 (0 no damage, 100 complete death), 14 days after application
How it was run: as §2

[16] = system: barnyardgrass (Echinochloa crus-galli, ECHCG); assay: as above; details: phytotoxicity rating 0-100 (0 no damage, 100 complete death), 14 days after application
How it was run: as §2

[17] = system: common ragweed (Ambrosia artemisizfolia L., AMBEL); assay: as above; details: phytotoxicity rating 0-100 (0 no damage, 100 complete death), 14 days after application
How it was run: as §2

[18] = system: velvetleaf (Abutilon theophrasti, ABUTH); assay: as above; details: phytotoxicity rating 0-100 (0 no damage, 100 complete death), 14 days after application
How it was run: as §2

[19] = system: large crabgrass (Digitaria sanguinalis, DIGSA); assay: as above; details: phytotoxicity rating 0-100 (0 no damage, 100 complete death), 14 days after application
How it was run: as §2

[20] = system: ivyleaf morningglory (Ipomoea hederacea, IPOHE); assay: as above; details: phytotoxicity rating 0-100 (0 no damage, 100 complete death), 14 days after application
How it was run: as §2

[21] = system: green foxtail (Setaria viridis, SETVI); assay: as above; details: phytotoxicity rating 0-100 (0 no damage, 100 complete death), 14 days after application
How it was run: as §2

[22] = system: field corn (Zea mays L., var. Dekalb 535, CORN); assay: Pre-emerge test, crop safety; details: pre-emerge, rated 14 days after application, 0 = no damage, 100 = complete death
How it was run: (§3)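 Compounds in acetone were track-sprayed at 15-1000 g ai/ha (187 l/ha) on sandy loam pots: pre-emerge one day after seeding, post-emerge at 2-3 leaf stage with 0.25% v/v non-ionic surfactant. Phytotoxicity was rated 14 days later on a 0 (no damage) to 100 (complete death) scale.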

[23] = system: upland rice (Oryza sp., var. Tebonnet, RICE); assay: Pre-emerge test, crop safety; details: pre-emerge, rated 14 days after application, 0 = no damage, 100 = complete death
How it was run: as §3

[24] = system: redroot pigweed (Amaranthus retroflexus, AMARE); assay: Pre-emerge test, greenhouse herbicide activity screening; details: pre-emerge, rated 14 days after application, 0 = no damage, 100 = complete death
How it was run: as §1

COc1c(Cl)cc(F)c(-n2c(=O)cc(C(F)(F)F)n(C)c2=O)c1N(C)C [Compound 1-11, 3-(4-chloro-2-dimehtylainino-6-fluoro-3-methoxyphenyl)-1-methyl-6-trifluoromethyl-2,4(1H, 3H)-pyrimidinedione]
Pre-emerge Herbicidal Activity CASOB (phytotoxicity rating, scale 0-100) ([1]; 63 g ai/ha): 20
Pre-emerge Herbicidal Activity CASOB (phytotoxicity rating, scale 0-100) ([1]; 250 g ai/ha): 60
Pre-emerge Herbicidal Activity SORHA (phytotoxicity rating, scale 0-100) ([2]; 63 g ai/ha): 90
Pre-emerge Herbicidal Activity SORHA (phytotoxicity rating, scale 0-100) ([2]; 250 g ai/ha): 98
Pre-emerge Herbicidal Activity CHEAL (phytotoxicity rating, scale 0-100) ([3]; 63 g ai/ha): 100
Pre-emerge Herbicidal Activity CHEAL (phytotoxicity rating, scale 0-100) ([3]; 250 g ai/ha): 100
Pre-emerge Herbicidal Activity ECHCG (phytotoxicity rating, scale 0-100) ([4]; 63 g ai/ha): 0
Pre-emerge Herbicidal Activity ECHCG (phytotoxicity rating, scale 0-100) ([4]; 250 g ai/ha): 95
Pre-emerge Herbicidal Activity AMBEL (phytotoxicity rating, scale 0-100) ([5]; 63 g ai/ha): 50
Pre-emerge Herbicidal Activity AMBEL (phytotoxicity rating, scale 0-100) ([5]; 250 g ai/ha): 100
Pre-emerge Herbicidal Activity ABUTH (phytotoxicity rating, scale 0-100) ([6]; 63 g ai/ha): 100
Pre-emerge Herbicidal Activity ABUTH (phytotoxicity rating, scale 0-100) ([6]; 250 g ai/ha): 100
Pre-emerge Herbicidal Activity DIGSA (phytotoxicity rating, scale 0-100) ([7]; 63 g ai/ha): 90
Pre-emerge Herbicidal Activity DIGSA (phytotoxicity rating, scale 0-100) ([7]; 250 g ai/ha): 100
Pre-emerge Herbicidal Activity IPOHE (phytotoxicity rating, scale 0-100) ([8]; 63 g ai/ha): 20
Pre-emerge Herbicidal Activity IPOHE (phytotoxicity rating, scale 0-100) ([8]; 250 g ai/ha): 90
Pre-emerge Herbicidal Activity SETVI (phytotoxicity rating, scale 0-100) ([9]; 63 g ai/ha): 80
Pre-emerge Herbicidal Activity SETVI (phytotoxicity rating, scale 0-100) ([9]; 250 g ai/ha): 100
Post-emerge Herbicidal Activity CORN (crop damage) ([10]; 63 g ai/ha): 0
Post-emerge Herbicidal Activity CORN (crop damage) ([10]; 250 g ai/ha): 0
Post-emerge Herbicidal Activity RICE (crop damage) ([11]; 63 g ai/ha): 0
Post-emerge Herbicidal Activity RICE (crop damage) ([11]; 250 g ai/ha): 0
Post-emerge Herbicidal Activity CASOB ([12]; 63 g ai/ha): 0
Post-emerge Herbicidal Activity CASOB ([12]; 250 g ai/ha): 0
Post-emerge Herbicidal Activity AMARE ([13]; 63 g ai/ha): 40
Post-emerge Herbicidal Activity AMARE ([13]; 250 g ai/ha): 60
Post-emerge Herbicidal Activity SORHA ([14]; 63 g ai/ha): 0
Post-emerge Herbicidal Activity SORHA ([14]; 250 g ai/ha): 0
Post-emerge Herbicidal Activity CHEAL ([15]; 63 g ai/ha): 50
Post-emerge Herbicidal Activity CHEAL ([15]; 250 g ai/ha): 95
Post-emerge Herbicidal Activity ECHCG ([16]; 63 g ai/ha): 0
Post-emerge Herbicidal Activity ECHCG ([16]; 250 g ai/ha): 0
Post-emerge Herbicidal Activity AMBEL ([17]; 63 g ai/ha): 10
Post-emerge Herbicidal Activity AMBEL ([17]; 250 g ai/ha): 10
Post-emerge Herbicidal Activity ABUTH ([18]; 63 g ai/ha): 70
Post-emerge Herbicidal Activity ABUTH ([18]; 250 g ai/ha): 100
Post-emerge Herbicidal Activity DIGSA ([19]; 63 g ai/ha): 0
Post-emerge Herbicidal Activity DIGSA ([19]; 250 g ai/ha): 0
Post-emerge Herbicidal Activity IPOHE ([20]; 63 g ai/ha): 40
Post-emerge Herbicidal Activity IPOHE ([20]; 250 g ai/ha): 70
Post-emerge Herbicidal Activity SETVI ([21]; 63 g ai/ha): 0
Post-emerge Herbicidal Activity SETVI ([21]; 250 g ai/ha): 50
Pre-emerge crop damage CORN (phytotoxicity rating, scale 0-100) ([22]; 63 g ai/ha): 0
Pre-emerge crop damage CORN (phytotoxicity rating, scale 0-100) ([22]; 250 g ai/ha): 60
Pre-emerge crop damage RICE (phytotoxicity rating, scale 0-100) ([23]; 63 g ai/ha): 20
Pre-emerge crop damage RICE (phytotoxicity rating, scale 0-100) ([23]; 250 g ai/ha): 70
Pre-emerge Herbicidal Activity AMARE (phytotoxicity rating, scale 0-100) ([24]; 63 g ai/ha): 100
Pre-emerge Herbicidal Activity AMARE (phytotoxicity rating, scale 0-100) ([24]; 250 g ai/ha): 100
